Reference: patent US20230109801A1 (Blue Oak Pharmaceuticals, Inc., priority 2020, published 2023)
Counter-ions that a name gives are not always drawn.

System: mice
Test: SmartCube in vivo neuropharmacological behavioral assay
Conditions: for minimal effective dose: Mus musculus, ip, dose having 50% or more total activity in SmartCube, i.p., read-out: MED (minimal effective dose); for AD: antidepressant, percent probability / AG: analgesic, percent probability / AP: antipsychotic, percent probability / AX: anxiolytic, percent probability / CE: cognitive enhancer, percent probability / HA: hallucinogenic, percent probability / MS: mood stabilizer, percent probability / PS, percent probability / SD: sedative hypnotic, percent probability / SE: side effects, percent probability / UN: uncharacterized CNS activity, percent probability / XG: anxiogenic, percent probability: SmartCube, i.p. 15 min before test, at the MED
Description: The compounds were evaluated for their CNS related properties (e.g., the treatment, prevention or diagnosis of CNS or CNS-related disorders and/or amelioration of symptoms) using neuropharmacological screening methods described in S. L. Roberts et al., Front. Neurosci. 2011, 5:103 (hereinafter referred to as “Roberts,” the contents of which are incorporated herein by reference in their entirety).
According to Roberts, intact systems are useful in detecting improvement in disease-relevant endpoints, because psychiatric diseases generally result from disorders of cell-cell communication or circuitry. The endpoints are typically behavioral in nature, often requiring human observation and interpretation. In order to test multiple compounds for behavioral effects relevant to neurological and psychiatric diseases and disorders, PsychoGenics, Inc. (Paramus, N.J. “PGI”) developed SmartCube®, an automated system in which behaviors of compound-treated mice are captured by digital video and analyzed with computer algorithms to facilitate testing of multiple compounds for behavioral effects relevant to psychiatric disease. (D. Brunner et al., Drug Discov. Today 2002, 7:S107-S112; Alexandrov et al., Eur. J. Pharmacol. 2015, 753:127-134; the contents of each of which are incorporated herein by reference in their entirety).
The SmartCube® system is described in Example 2.2 of U.S. Pat. No. 9,758,529 and Example 289 of WIPO Publication No. WO2018/023070, the contents of each of which are incorporated herein by reference in their entirety.
According to the present disclosure, compounds identified may be evaluated using the SmartCube® system. The results of such analysis correlate certain patterns or combinations of behaviors to CNS effects along a percent probability scale of 0-100 where zero (O) reflects the limit of quantitation (LOQ).
The compounds of the present disclosure were evaluated for their CNS related properties (e.g., the treatment, prevention or diagnosis of CNS or CNS-related disorders and/or amelioration of symptoms) using neuropharmacological screening methods described in S. L. Roberts et al., Front. Neurosci. 2011, 5:103 (hereinafter referred to as “Roberts,” the contents of which are incorporated herein by reference in their entirety).
The SmartCube® system described herein was utilized to compare the behavioral signature of a test compound to a database of behavioral signatures obtained using a large set of diverse reference compounds (including but not limited to antipsychotics, anxiolytics, antidepressants and bipolar disorder medicine), thereby predicting the neuropharmacological effects of a test compound by similarity to major classes of compounds. It produces an activity signature indicating the probability that the activity of the test compound at the administered dose matches a given class of neuropharmacological agents. The test compound is simultaneously compared against multiple classes of agents; thus, a separate probability is generated for each behavioral effect measured (such as but not limited to anxiolytic activity and analgesic activity).
The compounds of the present disclosure were dissolved in a mixture of Pharmasolve™ (N-methyl-2-pyrrolidone (NMP)) and were injected i.p. 15 min. before the behavioral test. For each compound, injections were administered at different dose levels (e.g., 0.3, 1, 3, 10 and 30 mg per kg (mpk)). A compound's minimal effective dose (MED; see Table 3) is a measure of the compound's potency. The MED was defined as the dose (in mpk) having 50% or more total activity in SmartCube®. For each behavioral effect measured, results at the MED are presented. CNS activities of the compounds were recorded (see Table 2). In Table 1, a key to the percent probabilities (probability×100) for each behavioral effect (“X”) are defined provided, where LOQ is the limit of quantification.

Structure (SMILES) | minimal effective dose [mg/kg] | AD: antidepressant, percent probability | AG: analgesic, percent probability | AP: antipsychotic, percent probability | AX: anxiolytic, percent probability | CE: cognitive enhancer, percent probability | HA: hallucinogenic, percent probability | MS: mood stabilizer, percent probability | PS, percent probability | SD: sedative hypnotic, percent probability | SE: side effects, percent probability | UN: uncharacterized CNS activity, percent probability | XG: anxiogenic, percent probability
COc1ccc2c(c1)C1CCC2N1C(C)C (stereo not drawn) [Compound 35, 4-Methoxy-11-(propan-2-yl)-11-azatricyclo[6.2.1.0^2,7]undeca-2,4,6-triene] | 1 to 10 | + (LOQ ≤ X < 5%) | + (LOQ ≤ X < 5%) | + (LOQ ≤ X < 5%) | ++ (5% ≤ X < 25%) | + (LOQ ≤ X < 5%) | + (LOQ ≤ X < 5%) | + (LOQ ≤ X < 5%) | + (LOQ ≤ X < 5%) | +++ (25% ≤ X < 50%) | + (LOQ ≤ X < 5%) | ++ (5% ≤ X < 25%) | + (LOQ ≤ X < 5%)
CC(C)C(C)N1C2CCC1c1ccccc12 (stereo not drawn) [Compound 47, 11-(3-Methylbutan-2-yl)-11-azatricyclo[6.2.1.0^2,7]undeca-2,4,6-triene hydrochloride] | 10 to 30 | ++++ (50% ≤ X <1 00%) | + (LOQ ≤ X < 5%) | + (LOQ ≤ X < 5%) | + (LOQ ≤ X < 5%) | + (LOQ ≤ X < 5%) | + (LOQ ≤ X < 5%) | + (LOQ ≤ X < 5%) | + (LOQ ≤ X < 5%) | + (LOQ ≤ X < 5%) | + (LOQ ≤ X < 5%) | ++ (5% ≤ X < 25%) | + (LOQ ≤ X < 5%)
CCC(C)N1C2CCC1c1ccccc12 (stereo not drawn) [Compound 44, 11-(Butan-2-yl)-11-azatricyclo[6.2.1.0^2,7]undeca-2,4,6-triene hydrochloride] | 1 to 10 | ++++ (50% ≤ X <1 00%) | + (LOQ ≤ X < 5%) | + (LOQ ≤ X < 5%) | ++ (5% ≤ X < 25%) | + (LOQ ≤ X < 5%) | + (LOQ ≤ X < 5%) | + (LOQ ≤ X < 5%) | ++ (5% ≤ X < 25%) | + (LOQ ≤ X < 5%) | + (LOQ ≤ X < 5%) | + (LOQ ≤ X < 5%) | + (LOQ ≤ X < 5%)
CC[C@@H](C)N1C2CCC1c1ccccc12 [Compound 33, 11-[(2R)-Butan-2-yl]-11-azatricyclo[6.2.1.0^2,7]undeca-2,4,6-triene hydrochloride] | 1 to 10 | + (LOQ ≤ X < 5%) | + (LOQ ≤ X < 5%) | + (LOQ ≤ X < 5%) | ++ (5% ≤ X < 25%) | + (LOQ ≤ X < 5%) | + (LOQ ≤ X < 5%) | + (LOQ ≤ X < 5%) | ++ (5% ≤ X < 25%) | + (LOQ ≤ X < 5%) | + (LOQ ≤ X < 5%) | ++++ (50% ≤ X <1 00%) | + (LOQ ≤ X < 5%)
CC1=CC2c3ccccc3C1N2C(C)C (stereo not drawn) [Compound 62, 9-Methyl-11-(propan-2-yl)-11-azatricyclo[6.2.1.0^2,7]undeca-2,4,6,9-tetraene hydrochloride] | 1 to 10 | ++ (5% ≤ X < 25%) | ++ (5% ≤ X < 25%) | + (LOQ ≤ X < 5%) | ++ (5% ≤ X < 25%) | + (LOQ ≤ X < 5%) | + (LOQ ≤ X < 5%) | + (LOQ ≤ X < 5%) | + (LOQ ≤ X < 5%) | + (LOQ ≤ X < 5%) | + (LOQ ≤ X < 5%) | ++ (5% ≤ X < 25%) | + (LOQ ≤ X < 5%)
Cc1cccc2c1C1CCC2N1C(C)C (stereo not drawn) [Compound 31, 3-Methyl-11-(propan-2-yl)-11-azatricyclo[6.2.1.0^2,7]undeca-2,4,6-triene hydrochloride] | 10 to 30 | ++ (5% ≤ X < 25%) | ++ (5% ≤ X < 25%) | + (LOQ ≤ X < 5%) | ++ (5% ≤ X < 25%) | + (LOQ ≤ X < 5%) | + (LOQ ≤ X < 5%) | + (LOQ ≤ X < 5%) | + (LOQ ≤ X < 5%) | ++ (5% ≤ X < 25%) | + (LOQ ≤ X < 5%) | +++ (25% ≤ X < 50%) | + (LOQ ≤ X < 5%)
c1ccc2c(c1)C1CCC2N1C1CCCC1 [Compound 43, 11-Cyclopentyl-11-azatricyclo[6.2.1.0^2,7]undeca-2,4,6-triene hydrochloride] | 10 to 30 | ++++ (50% ≤ X <1 00%) | + (LOQ ≤ X < 5%) | + (LOQ ≤ X < 5%) | ++ (5% ≤ X < 25%) | + (LOQ ≤ X < 5%) | + (LOQ ≤ X < 5%) | + (LOQ ≤ X < 5%) | ++ (5% ≤ X < 25%) | + (LOQ ≤ X < 5%) | + (LOQ ≤ X < 5%) | ++ (5% ≤ X < 25%) | + (LOQ ≤ X < 5%)
Clc1cccc2c1C1C=CC2N1 (stereo not drawn) [Compound 11, 3-Chloro-11-azatricyclo[6.2.1.0^2,7]undeca-2,4,6,9-tetraene hydrochloride] | > 30 | + (LOQ ≤ X < 5%) | + (LOQ ≤ X < 5%) | + (LOQ ≤ X < 5%) | ++ (5% ≤ X < 25%) | ++ (5% ≤ X < 25%) | + (LOQ ≤ X < 5%) | + (LOQ ≤ X < 5%) | + (LOQ ≤ X < 5%) | + (LOQ ≤ X < 5%) | + (LOQ ≤ X < 5%) | ++ (5% ≤ X < 25%) | + (LOQ ≤ X < 5%)
CC1=C(C)C2c3ccccc3C1N2C(C)C [Compound 60, 9,10-Dimethyl-11-(propan-2-yl)-11-azatricyclo[6.2.1.0^2,7]undeca-2,4,6,9-tetraene hydrochloride] | 10 to 30 | ++++ (50% ≤ X <1 00%) | ++ (5% ≤ X < 25%) | + (LOQ ≤ X < 5%) | + (LOQ ≤ X < 5%) | + (LOQ ≤ X < 5%) | + (LOQ ≤ X < 5%) | + (LOQ ≤ X < 5%) | ++ (5% ≤ X < 25%) | + (LOQ ≤ X < 5%) | + (LOQ ≤ X < 5%) | + (LOQ ≤ X < 5%) | + (LOQ ≤ X < 5%)
